Paper PMC6982951, “The N’-Substituted Derivatives of 5-Chloro-3-Methylisothiazole-4-Carboxylic Acid Hydrazide with Antiproliferative Activity” (Molecules, 2019)
“And” between values parts separate entries of the source, which are not always exact repeats. Identical values can stand only once. “Also recorded” adds a separate entry of the source. Like-named read-outs stand apart in the source and are kept apart here.

Assays:
[1] = system: MV4-11 (human biphenotypic B cell myelomonocytic leukemia); experiment: MTT antiproliferative assay, 72 h exposure; format: cell-based; conditions: for IC50 / IC50 ± SD: MV4-11, MTT, 72 h, n.a. = no activity in a concentration of 1–80 μg/mL; for antiproliferative activity (in words): MV4-11 leukemia cells; for inhibition at 80 µg/mL: MV4-11, compound concentration 80 μg/mL, read-out: inhibition of cell proliferation
Source text: (§1) Established in vitro, human cell lines MV4-11 (human biphenotypic B myelomonocytic leukemia), MCF-7 (breast cancer), LoVo (colon cancer), LoVo/DX (colon cancer drug resistant), and MCF-10A (normal breast epithelial) were used. The lines were obtained from the American Type Culture Collection (lines MV4-11, LoVo, LoVo/DX, MCF-10A; Rockville, MD, USA) or from the European Collection of Authenticated Cell Cultures (line MCF-7) and are being maintained at the Hirszfeld Institute of Immunology and Experimental Therapy PAS, Wroclaw, Poland.
(§2) MV4-11 cells were cultured in the RPMI 1640 medium (HIIET PAS, Poland) supplemented with 1.0 mM sodium pyruvate, 2 mM L-glutamine and 10% FBS (all from Sigma Aldrich, Steinheim, Germany), LoVo cells were cultured in the F-12K medium (Life Technologies, Carlsbad, CA, United States) supplemented with 10% FBS (GE Healthcare, Chicago, IL, USA), and LoVo/DX cells were cultured in the mixture of RPMI 1640+OptiMEM (1:1) medium (HIIET PAS) supplemented with 5% FBS (GE Healthcare, Chicago, IL, USA), 2 mM L-glutamine, 1.0 mM sodium pyruvate (all from Sigma Aldrich, Steinheim, Germany) and 0.1 µg/mL doxorubicin chloride (Accord).
(§3) Test solutions of the compounds tested (50 mM) were prepared by dissolving the substances in DMSO (Sigma Aldrich). Afterwards, the tested compounds were diluted in a culture medium to reach the final concentrations at the range of 1-80 μg/mL (250, 125, 25 and 5 μM).
(§4) Twenty-four hours prior to the addition of the tested compounds, the cells were plated in 96-well plates (Sarstedt, Germany) at a density of 1 × 10^4 or 0.75 × 10^4 (MCF-7) cells per well. The assay was performed after 72 h of exposure to varying concentrations of the tested agents. The in vitro cytotoxic effect of all agents was examined using the MTT (MV4-11) or SRB assay. The results were calculated as IC50 (inhibitory concentration 50%) the concentration of tested agent, which is cytotoxic for 50% of the cancer cells. Each compound in each concentration was tested in triplicate in a single experiment, which was repeated 3–4 times.
This technique was applied for cells growing in suspension culture. An assay was performed after 72 h exposure to varying concentrations of the tested agents. For the last 4 h of incubation, 20 µL of MTT solution was added to each well (MTT: 3-(4,5-dimethylthiazol-2-yl)-2,5-diphenyl tetrazolium bromide; stock solution: 5 mg/mL, Sigma Aldrich). When the incubation time was completed, 80 µL of the lysing mixture was added to each well (lysing mixture: 225 mL dimethylformamide, POCh, Gliwice, Poland, 67.5 g sodium dodecyl sulfate, Sigma Aldrich, and 275 mL of distilled water). After 24 h, when formazan crystals had been dissolved, the optical densities of the samples were read on Synergy H4 photometer (BioTek Instruments, USA) at 570 nm wavelength. The background optical density was measured in the wells filled with culture medium, without the cells.

[2] = system: LoVo (human colon adenocarcinoma, sensitive); experiment: SRB antiproliferative assay, 72 h exposure; format: cell-based; conditions: for IC50: read-out: IC50 ± SD LoVo
Source text: as §1, §2, §3, §4
(§5) This technique was applied for the cytotoxicity screening against cells growing in adherent culture. The details of this technique were described by Skehan et. al.. The cytotoxicity assay was performed after 72 h exposure of the cultured cells to varying concentrations of the tested agents. The cells attached to the plastic were fixed by gently layering cold 50% TCA (trichloroacetic acid, Sigma Aldrich) on the top of the culture medium in each well. The plates were incubated at 4 °C for 1 h and then washed five times with tap water. The cellular material fixed with TCA was stained with 0.1% sulforhodamine B (SRB, Sigma Aldrich) dissolved in 1% acetic acid (POCh) for 30 min. Unbound dye was removed by rinsing (4×) with 1% acetic acid. The protein-bound dye was extracted with 10 mM unbuffered Tris base (Sigma Aldrich) for determination of optical density (at 540 nm) on Synergy H4 photometer (BioTek Instruments). The background optical density was measured in the wells filled with culture medium, without the cells.

[3] = system: MCF-7 (breast adenocarcinoma); experiment: SRB antiproliferative assay, 72 h exposure; format: cell-based, human; conditions: MCF-7, SRB; for IC50: read-out: IC50 ± SD MCF-7
Source text: as §1
(§6) MCF-7 cells were cultured in the Eagle’s medium (HIIET PAS, Poland) supplemented with 10% FBS, 8 µg/mL insulin, 2 mM L-glutamine and 1% MEM-non essential amino acid solution 100X (all from Sigma Aldrich, Steinheim, Germany). MCF-10A cells were cultured in the HAM’S F-12 with L-glutamine medium (Corning) supplemented with 10% Hors Serum (Gibco), 10 µg/mL insulin, 0.5 µg/mL hydrocortisone, 20 ng/mL EGFh and 0.05 mg/mL Cholera Toxin from Vibrio cholerae (all from Sigma Aldrich, Steinheim, Germany). All culture mediums were supplemented with 100 units/mL penicillin (Polfa Tarchomin S.A. Poland), and 100 µg/mL streptomycin (Sigma Aldrich). All cell lines were grown at 37 °C with 5% CO2 humidified atmosphere.
as §3, §4, §5

[4] = system: LoVo/DX (human colon adenocarcinoma, resistant to doxorubicin); experiment: SRB antiproliferative assay, 72 h exposure; resistance index; format: cell-based; conditions: for RI (resistance index): IC50 against LoVo/DX divided by IC50 against LoVo; for IC50 ± SD LoVoDX / IC50: LoVo/DX, SRB, 72 h; for IC50: read-out: IC50 ± SD LoVoDX
Source text: as §1, §2, §3, §4
The resistance indexes (RI) were calculated by dividing the IC50 values of the compounds tested against the cells of drug resistant cell LoVo/DX line by respective values obtained against the cells of drug sensitive LoVo line (Table 2). According to Harker et al., three categories of the cells could be distinguished: (a) the cells are drug-sensitive if the ratio approaches 0–2; (b) the cells are moderately drug-resistant if the ratio ranges from 2 to 10; (c) the cells are markedly drug-resistant if the ratio is higher than 10.
as §5

[5] = system: MCF-10A (normal non-tumorigenic epithelial cell line derived from mammary gland); experiment: SRB cytotoxicity assay, 72 h exposure; format: cell-based, human; conditions: for IC50: read-out: IC50 ± SD MCF-10A; for cytotoxicity against normal MCF-10A cells relative to cancer MCF-7 cells: MCF-10A versus MCF-7
Source text: as §1, §6, §3, §4, §5

[6] = MCF-10A normal cells, SRB, 72 h
[7] = Homo sapiens, MCF-10A normal cells, SRB, 72 h

| SMILES | RI (resistance index) [4] | antiproliferative activity (in words) [1] | IC50 ([1]; Homo sapiens, MV4-11, 72 h) | IC50 ([2]; Homo sapiens) | IC50 ([3]; Homo sapiens, MCF7, 72 h) | IC50 ([4]; Homo sapiens) | IC50 [5, 7] | melting point [°C] | other results |
| --- | --- | --- | --- | --- | --- | --- | --- | --- | --- |
| N.N.[Cl][Pt][Cl] [Cisplatin, reference compound] | 0.49 | – | – | – | – | – | – | – | IC50 [1]: 1.28 ± 0.45 µM; IC50 ± SD [1]: 0.38 ± 0.14 µg/mL; IC50 ± SD LoVo [2]: 1.7 ± 0.8 µg/mL; IC50 [2]: 5.6 ± 2.6 µM; IC50 ± SD MCF-7 [3]: 1.56 ± 0.3 µg/mL; IC50 [3]: 5.2 ± 1 µM; IC50 ± SD LoVoDX [4]: 0.84 ± 0.17 µg/mL; IC50 [4]: 2.8 ± 0.6 µM; IC50 ± SD MCF-10A [5, 6]: 2.9 ± 0.4 µg/mL; IC50 [5, 6]: 9.7 ± 1.4 µM |
| Cc1nsc(Cl)c1C(=O)O [Compound 1, 5-Chloro-3-methylisothiazole-4-carboxylic acid] | – | no antiproliferative activity; also recorded: devoid of any anticancer activity | – | – | – | – | – | – | – |
| Cc1nsc(Cl)c1C(=O)NN [Compound 2, 5-Chloro-3-Methylisothiazole-4-Carbohydrazide] | – | very poor activity; also recorded: devoid of any anticancer activity | > 80 µg/mL | – | – | – | – | – | inhibition at 80 µg/mL ([1]; Homo sapiens): 45% |
| Cc1nsc(Cl)c1C(=O)N/N=C/C=C/c1ccccc1 [Compound 3, 5-Chloro-N’-[(1E,2E)-3-phenylprop-2-en-1-ylidene]-3-methylisothiazole-4-carbohydrazide] | 1.37 | – | 4.4 µg/mL and 14 µM | 25 ± 5.5 µM | 39.3 ± 6.3 µM | 34.2 ± 2.3 µM | 20.9 µg/mL and 68.6 µM | 180 to 181 | IC50 ± SD [1]: 4.3 ± 1.9 µg/mL; IC50 ± SD LoVo [2]: 7.64 ± 1.7 µg/mL; IC50 ± SD MCF-7 [3]: 12 ± 1.9 µg/mL; IC50 ± SD LoVoDX [4]: 10.4 ± 0.7 µg/mL; activity (IC50 value) towards MCF-10A normal cell line relative to cancer cells ([5]; MCF-10A versus cancer cells): almost two times lower activity |
| Cc1nsc(Cl)c1C(=O)N/N=C/c1cccc(Cl)c1 [Compound 4, 5-Chloro-N’-[(E)-(3-chlorophenyl)methylidene]-3-methylisothiazole-4-carbohydrazide] | 0.81 | – | 15.2 µg/mL and 48.4 µM | 59.4 ± 3.4 µM | 48.6 ± 5.7 µM | 47.9 ± 3.7 µM | 24.6 µg/mL and 78.5 µM | 174 to 175 | IC50 ± SD LoVo [2]: 18.6 ± 1.1 µg/mL; IC50 ± SD MCF-7 [3]: 15.2 ± 1.8 µg/mL; IC50 ± SD LoVoDX [4]: 15 ± 1.1 µg/mL |
| Cc1nsc(Cl)c1C(=O)N/N=C/c1cccc([N+](=O)[O-])c1 [Compound 5, 5-Chloro-N’-[(E)-(3-nitrophenyl)methylidene]-3-methylisothiazole-4-carbohydrazide] | 1.29 | – | 18.7 µg/mL and 57.7 µM | 22.7 µg/mL and 73.4 µM | 20.1 µg/mL and 65.1 µM | 29.2 µg/mL and 94.6 µM | 60.8 µg/mL and 197 µM | 199 to 200 | cytotoxicity against normal MCF-10A cells relative to cancer MCF-7 cells [5]: about three times less cytotoxic |
| CCc1ccc(/C=N/NC(=O)c2c(C)nsc2Cl)cc1 [Compound 6, 5-Chloro-N’-[(E)-(4-ethylphenyl)methylidene]-3-methylisothiazole-4-carbohydrazide] | 0.91 | – | 21.3 µg/mL and 69.4 µM | 31.7 µg/mL and 97.7 µM | 13.9 µg/mL and 42.9 µM | 28.8 µg/mL and 88.8 µM | 40.6 µg/mL and 125 µM | 152 to 154 | – |
| Cc1nsc(Cl)c1C(=O)N/N=C/c1ccccc1 [Compound 8, 5-Chloro-N’-[(E)-phenylmethylidene]-3-methylisothiazole-4-carbohydrazide] | – | – | 36.6 µg/mL and 131 µM | – | – | – | – | 164 to 165 | cytotoxicity against normal MCF-10A cells relative to cancer MCF-7 cells [5]: about three times less cytotoxic |
| Cc1ccc(/C=N/NC(=O)c2c(C)nsc2Cl)c(C)c1 [Compound 9, 5-Chloro-N’-[(E)-(2,4-dimethylphenyl)methylidene]-3-methylisothiazole-4-carbohydrazide] | – | very poor activity | > 80 µg/mL | – | – | – | – | 232 to 234 | inhibition at 80 µg/mL ([1]; Homo sapiens): 42.5%; cytotoxicity against normal MCF-10A cells relative to cancer MCF-7 cells [5]: about three times less cytotoxic |
| Cc1ccccc1/C=N/NC(=O)c1c(C)nsc1Cl [Compound 10, 5-Chloro-N’-[(E)-(2-methylphenyl)methylidene]-3-methylisothiazole-4-carbohydrazide] | – | very poor activity | > 80 µg/mL | – | – | – | – | 226 to 228 | inhibition at 80 µg/mL ([1]; Homo sapiens): 47% |
| Cc1nsc(Cl)c1C(=O)N/N=C/c1ccccc1Cl [Compound 11, 5-Chloro-N’-[(E)-(2-chlorophenyl)methylidene]-3-methylisothiazole-4-carbohydrazide] | – | no antiproliferative activity | – | – | – | – | – | 232 to 233 | – |
